Experimental data as given in patent US20090023685A1, “Nebulized or Sprayed Cidofovir for Recurrent Respiratory Papillomatosis” (priority 2007, published 2009).
“Also recorded” adds a separate entry of the source.

Tested on: Recurrent Respiratory Papillomatosis due to Human Papillomavirus subtype 6 (HPV-6)
Experiment: Case report: systemic, topical and nebulized cidofovir in a young child with recurrent respiratory papillomatosis
Format: in vivo
Method: We decided that applying cidofovir using a flexible bronchoscope and a cytology brush soaked in cidofovir would be a reasonable method to attempt to deliver the drug to the papillomas. We used the intravenous form of the drug, diluted to the concentration used in the gel based formula.
Therefore, we made a 4 ml solution at the same concentration we were using for the topical application.
Therefore, we elected to nebulize the drug (Cidofovir 10 mg/ml in NS, 4 cc, 3 times/week).
Background: a person is an ex-prem (24 week GA) born to a mom who had antenatal bleeding and had been given steroids prior to delivery. Their postnatal course was complicated by Respiratory distress syndrome (mechanical ventilation for 52 days, CPAP for 28 days and O2 for 30 days), a patent ductus arteriousus (indomethacin & surgical ligation), hemodynamic instability necessitating inotropic support and renal failure. Following discharge home a person had severe GERD, (L) inguinal hernia repair and was described to have colic.
Presentation: At 10½ months of age, they presented to the Children's Hospital Emergency Room with increasing difficulties breathing. […] They were admitted to hospital and subsequently transferred to the Pediatric intensive care unit. They were diagnosed with upper airway obstruction and treated with Heliox (80:20) and nebulized racemic epinephrine. […] They underwent tracheostomy.
Initial management: Suspension laryngoscopy with CO2 laser for debulking papillomas was performed ×6 (locally) and ×2 (larger tertiary centre) (FIG. 1b). […] Palliation was discussed with the […].
Adjuvant therapy: Medical management was initiated 6 months into treatment.
Topical and nebulized cidofovir: The patient was started on topically applied cidofovir via flexible bronchoscopy q2 weeks in addition to continuing the intravenous (systemic) dose. A cytology brush was soaked in cidofovir 10 mg/ml solution and advanced via the bronchoscope to the lower airway papillomas (FIG. 2a). We elected to start nebulized cidofovir to reduce the frequency of Bronchoscopic procedures and to intensify treatment. […] After 6 months of nebulized cidofovir, the dose was reduced to 2× weekly.
Current status: A large papilloma was surgically debulked (microdebridment) and topical cidofovir was topically applied to the base of the lesion. […] undergoes surveillance bronchoscopy q3 months and continues on nebulized cidofovir 5 mg/ml, 4 cc 2× weekly (FIGS. 2c and 3b).

## Nc1ccn(C[C@@H](CO)OCP(=O)(O)O)c(=O)n1 [cidofovir]
After nebulized cidofovir, surgical debulking of a large papilloma and topical cidofovir to its base
  current disease status: papilloma free; also recorded: Her disease has remitted
Intravenous (systemic) cidofovir 4.1 mg/kg/dose every 4 weeks
  effect on papillomatosis: without effect
Nebulized cidofovir
  effect in the lung (CT scans): improvement in the lung
Nebulized cidofovir 10 mg/ml, 4 ml (total dose 40 mg), 3× weekly
  complications / side effects: bleeding (dose dependent & related to infection with bacteria; also recorded: cough
Nebulized cidofovir 10 mg/ml, 4 ml (total dose 40 mg), 3× weekly, listed as Cidofovir
  complications / side effects: hemoptysis; also recorded: bleeding and protracted airways inflammation
Nebulized cidofovir after the dose was reduced (5 mg/ml; later 2 times/week)
  complications / side effects: resolution of the complications
Nebulized cidofovir after the dose was reduced (5 mg/ml; later 2 times/week), listed as Cidofovir
  complications / side effects: without complications
Nebulized cidofovir in saline, 4 ml, 2-3 times/week
  effect on lower airway papillomas: worked well; also recorded: reduction of the burden of the papillomas
Nebulized cidofovir in saline, 4 ml, 2-3 times/week, listed as Cidofovir
  effect on lower airway papillomas: lower airway lesions have visually disappeared
Nebulized cidofovir, droplet size 2-4 microns
  papillomas in the main airway (trachea): remained large
Systemic cidofovir q2 weeks plus Interferon α2b 5 MU/m^2 3× weekly, listed as Cidofovir
  course of disease: did not halt the progression of the disease
Systemic cidofovir stepped down to q3 weeks (with Interferon α2b)
  course of lesions: the lesions worsened
Topical cidofovir (10 mg/ml, thickened with sterile glycerine) applied by cytology brush via flexible bronchoscopy every 2 weeks
  effect on lower airway papillomas: worked to reduce the size of the papillomas
Topical cidofovir (10 mg/ml, thickened with sterile glycerine) applied by cytology brush via flexible bronchoscopy every 2 weeks, listed as Cidofovir
  effect on lower airway papillomas: The lesions regressed
